The values below come from patent US10336729B2, “4-cyano-benzyl carbamimidoylcarbamate derivatives and their use as AOC3 inhibitors” (Boehringer Ingelheim International GmbH, priority 2016, dated 2019).

Chain of AOC3 (Q16853 whole entry): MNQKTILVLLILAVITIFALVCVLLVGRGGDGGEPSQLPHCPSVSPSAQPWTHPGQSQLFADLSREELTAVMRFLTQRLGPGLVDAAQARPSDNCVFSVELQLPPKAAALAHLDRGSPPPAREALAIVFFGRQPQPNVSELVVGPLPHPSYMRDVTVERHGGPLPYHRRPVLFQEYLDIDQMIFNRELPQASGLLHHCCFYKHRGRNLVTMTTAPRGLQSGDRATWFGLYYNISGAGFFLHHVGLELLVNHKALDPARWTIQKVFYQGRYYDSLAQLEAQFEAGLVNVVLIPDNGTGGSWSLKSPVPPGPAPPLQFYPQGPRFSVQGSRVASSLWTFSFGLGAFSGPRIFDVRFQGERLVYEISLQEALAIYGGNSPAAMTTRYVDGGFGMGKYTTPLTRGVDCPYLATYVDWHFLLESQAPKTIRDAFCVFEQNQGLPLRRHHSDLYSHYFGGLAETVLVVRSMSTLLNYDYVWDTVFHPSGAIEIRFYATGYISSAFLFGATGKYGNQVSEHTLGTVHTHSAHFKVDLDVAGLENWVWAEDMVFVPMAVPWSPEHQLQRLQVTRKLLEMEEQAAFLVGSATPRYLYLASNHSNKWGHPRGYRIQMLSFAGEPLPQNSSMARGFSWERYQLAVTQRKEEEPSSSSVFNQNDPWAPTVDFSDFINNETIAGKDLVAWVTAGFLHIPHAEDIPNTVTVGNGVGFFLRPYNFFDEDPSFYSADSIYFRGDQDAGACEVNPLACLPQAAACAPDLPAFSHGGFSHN

For the assay, the target named is AOC3 (Homo sapiens (Human), UniProt Q16853). The assay can be described thus: MAO-Glo AOC3 assay. Format: biochemical. Particulars: recombinant CHO cells overexpressing AOC3 enzyme. The text has this:
The MAO-Glo™ Assay (commercial available from PROMEGA, #V1402) provides a sensitive method for the measurement of monoamine oxidase (MAO) activity (Valley, M. P. et al., 2006, Anal. Biochem. 359: 238-246) from a variety of tissues, biofluids or recombinant expressed or purified enzymes. As substrate a derivate of the beetle luciferin ((4S)-4,5-dihydro-2-(6-hydroxybenzothiazolyl)-4-thiazole-carboxylic acid) is used, which is oxidized at a primary amine moiety. After a spontaneous elimination and a catalyzed esterase reaction, the turnover of the luciferine by the luciferase is recorded as a signal of AOC3 activity.
An aliquot of 3 μL of the compound dilution is added to a 384 well plate (Optiplate, PS, flat bottom, white, PERKIN ELMER, #6007290) with a final DMSO concentration of 6.6%. Recombinant CHO cells, overexpressing the human (1500 cells/well), mouse (1000 cells/well) or rat (500 cells/well) AOC3 enzyme are diluted in reaction buffer and added in a volume of 15 μL to the wells. After incubation for 20 minutes at 37° C., 2 μL of MAO substrate (dissolved in DMSO at 16 mM, adjusted to assay concentration in reaction buffer to a final assay concentration of 20 μM) is added and further incubated for 60 minutes at 37° C. The turnover of the substrate is determined by the addition of 20 μL of the detection-mix which was generated by the addition of reconstitution buffer with esterase (PROMEGA, #V1402) to the luciferine detection reagent (PROMEGA, #V1402). After an incubation period of 20 minutes, the luminescent signal is measured with Envision 2104 Multilabel Reader (PERKIN ELMER).
For the compound `N#Cc1ccc(COC(=O)NC(=N)N)c(F)c1N1CCCN(c2cccnc2)CC1` [Example 1.011], the IC50 turned out to be 95 nM.
The same measure for `COc1ccc(C2CCN(c3c(C#N)ccc(COC(=O)NC(=N)N)c3F)CC2)cc1` [Example 1.048]: 82 nM; for `N#Cc1cccc(N2CCN(c3c(C#N)ccc(COC(=O)NC(=N)N)c3F)CC2)c1` [Example 1.040]: 2 nM.
The same measure for `CC(=O)N1CCC(C2CCN(c3c(C#N)ccc(COC(=O)NC(=N)N)c3F)CC2)CC1` [Example 1.014]: 4 nM; for `N#Cc1ccc(COC(=O)NC(=N)N)c(F)c1N1CCC(c2ccc(F)cc2)CC1` [Example 1.031]: 70 nM; for `Cc1cc(C)cc(N2CCN(c3c(C#N)ccc(COC(=O)NC(=N)N)c3F)CC2)c1` [Example 1.052]: 146 nM.
With `N#Cc1ccc(COC(=O)NC(=N)N)c(F)c1N1CCN(c2cccnc2)CC1` [Example 1.012], the IC50 turned out to be 6 nM.
In the case of `N#Cc1ccc(COC(=O)NC(=N)N)c(F)c1N1CCC(C#N)(c2ccccc2)CC1` [Example 2.001], the IC50 worked out at 166 nM.
`CS(=O)(=O)c1ccc(N2CCN(c3c(C#N)ccc(COC(=O)NC(=N)N)c3F)CC2)cc1` [Example 1.002]: the IC50 is 6 nM.
In the case of `N#Cc1ccc(COC(=O)NC(=N)N)c(F)c1N1CCN(c2cccnn2)CC1` [Example 1.083], the IC50 was 34 nM.
The same measure for `CCOc1cc(C2CCN(c3c(C#N)ccc(COC(=O)NC(=N)N)c3F)CC2)ccn1` [Example 1.016]: 12 nM.
For `N#Cc1ccc(COC(=O)NC(=N)N)c(F)c1N1CCC(c2ccc(C(F)(F)F)cc2)CC1` [Example 1.084], the IC50 amounted to 502 nM.
The value for `COc1cnc(C2=CCN(c3c(C#N)ccc(COC(=O)NC(=N)N)c3F)CC2)nc1` [Example 1.067] was 77 nM; that for `N#Cc1ccc(COC(=O)NC(=N)N)c(F)c1N1CC=C(c2ncccn2)CC1` [Example 1.063] was 34 nM; that for `N#Cc1ccc(COC(=O)NC(=N)N)c(F)c1N1CC=C(c2ccc(F)cc2)CC1` [Example 1.033] was 24 nM.
Consider `N#Cc1ccc(COC(=O)NC(=N)N)c(F)c1N1CCC(c2ccc(C(=O)O)cc2)CC1` [Example 1.035], for which the IC50 came out at 4 nM.
The value for `N#Cc1ccc(COC(=O)NC(=N)N)c(F)c1N1CCN(c2ccc(F)cc2)C(=O)C1` [Example 1.050] was 5 nM; that for `CC(=O)N1CCC(N2CCN(c3c(C#N)ccc(COC(=O)NC(=N)N)c3F)CC2)CC1` [Example 1.008] was 397 nM; that for `CCc1ccc(N2CCN(c3c(C#N)ccc(COC(=O)NC(=N)N)c3F)CC2)cc1` [Example 1.060] was 334 nM.
Take `CC(=O)N1CCC(C2CN(c3c(C#N)ccc(COC(=O)NC(=N)N)c3F)C2)CC1` [Example 1.010]: the IC50 came out at 25 nM.
Take `N#Cc1ccc(COC(=O)NC(=N)N)c(F)c1N1C2CCC1CC(c1ccccc1)C2` (stereo not shown) [Example 1.077]: the IC50 was found to be 293 nM.
For `N#Cc1ccc(COC(=O)NC(=N)N)c(F)c1N1CCC(c2ccc(Cl)cc2)CC1` [Example 1.049], the IC50 is 102 nM.
As to `N#Cc1ccc(COC(=O)NC(=N)N)c(F)c1N1CCC(c2nccs2)CC1` [Example 1.030], the IC50 stood at 65 nM.
With `N#Cc1ccc(COC(=O)NC(=N)N)c(F)c1N1CCC(c2ccncc2)C1` (stereo not shown) [Example 1.019], the IC50 stood at 17 nM.
For the compound `N#Cc1ccc(COC(=O)NC(=N)N)c(F)c1N1CCN(c2cccc(F)c2)CC1` [Example 1.028], the IC50 was found to be 14 nM.
For the compound `CS(=O)(=O)N1CCC(C2CN(c3c(C#N)ccc(COC(=O)NC(=N)N)c3F)C2)CC1` [Example 1.004], the IC50 is 24 nM.
The same measure for `N#Cc1ccc(N2CCN(c3c(C#N)ccc(COC(=O)NC(=N)N)c3F)CC2)cc1` [Example 1.009]: 3 nM.
As to `N#Cc1ccc(COC(=O)NC(=N)N)c(F)c1N1CCN(c2ccccn2)CC1` [Example 1.051], the IC50 amounted to 271 nM.
Turning to `CS(=O)(=O)c1ccc(N2CCN(c3c(C#N)ccc(COC(=O)NC(=N)N)c3F)CC2)c(F)c1` [Example 1.042], the IC50 turned out to be 46 nM.
The same measure for `N#Cc1ccc(COC(=O)NC(=N)N)c(F)c1N1CCN(c2ccncn2)CC1` [Example 1.001]: 7 nM.
The value for `N#Cc1ccc(COC(=O)NC(=N)N)c(F)c1N1CCC(c2nnco2)CC1` [Example 2.006] was 33 nM; that for `CC(=O)N1CCN(C2CCN(c3c(C#N)ccc(COC(=O)NC(=N)N)c3F)CC2)CC1` [Example 1.003] was 67 nM; that for `CN1CCN(C2CCN(c3c(C#N)ccc(COC(=O)NC(=N)N)c3F)CC2)CC1=O` [Example 1.018] was 169 nM.
The same measure for `N#Cc1ccc(COC(=O)NC(=N)N)c(F)c1N1CCN(C2CCOCC2)CC1` [Example 1.038]: 579 nM; for `CN(C)Cc1ccc(C2CCN(c3c(C#N)ccc(COC(=O)NC(=N)N)c3F)CC2)cc1` [Example 1.044]: 10 nM.
With `N#Cc1ccc(COC(=O)NC(=N)N)c(F)c1N1CCC2(CC1)CC(=O)Nc1ncccc12` [Example 2.002], the IC50 came to 93 nM.
The same measure for `N#Cc1ccc(COC(=O)NC(=N)N)c(F)c1N1CCC(N2CCC(C(N)=O)CC2)CC1` [Example 1.024]: 50 nM; for `CN(C)C(=O)c1ccc(N2CCN(c3c(C#N)ccc(COC(=O)NC(=N)N)c3F)CC2)cc1` [Example 1.026]: 70 nM.
The value for `N#Cc1ccc(COC(=O)NC(=N)N)c(F)c1N1CC=C(c2ncco2)CC1` [Example 1.043] was 17 nM.
The value for `N#Cc1ccc(COC(=O)NC(=N)N)c(F)c1N1CCN(c2cnccn2)CC1` [Example 1.007] was 10 nM; that for `CS(=O)(=O)N1CCC(C2CCN(c3c(C#N)ccc(COC(=O)NC(=N)N)c3F)CC2)CC1` [Example 1.017] was 5 nM; that for `N#Cc1ccc(COC(=O)NC(=N)N)c(F)c1N1CCN(c2ccc(Cl)cn2)CC1` [Example 1.078] was 7 nM.
As to `N#Cc1ccc(COC(=O)NC(=N)N)c(F)c1N1CCN(c2ncc(F)cn2)CC1` [Example 1.069], the IC50 worked out at 27 nM.
For the compound `COc1cnc(N2CCN(c3c(C#N)ccc(COC(=O)NC(=N)N)c3F)CC2)nc1` [Example 1.056], the IC50 was determined as 15 nM.
The same measure for `N#Cc1ccc(COC(=O)NC(=N)N)c(F)c1N1CCN(c2ccc(C(N)=O)cc2)CC1` [Example 1.058]: 71 nM.
The value for `CCOc1ccc(C2CCN(c3c(C#N)ccc(COC(=O)NC(=N)N)c3F)CC2)cn1` [Example 1.080] was 20 nM; that for `N#Cc1cccc(C2CCN(c3c(C#N)ccc(COC(=O)NC(=N)N)c3F)CC2)c1` [Example 1.022] was 5 nM.
For the compound `N#Cc1ccc(COC(=O)NC(=N)N)c(F)c1N1CCC(N2CCC(O)CC2)CC1` [Example 1.089], the IC50 was 56 nM.
In the case of `N#Cc1ccc(COC(=O)NC(=N)N)c(F)c1N1CCN(c2ccnnc2)CC1` [Example 1.006], the IC50 came out at 5 nM.
The value for `Cc1cnc(C2=CCN(c3c(C#N)ccc(COC(=O)NC(=N)N)c3F)CC2)o1` [Example 1.071] was 12 nM.
The value for `CC1CN(c2c(C#N)ccc(COC(=O)NC(=N)N)c2F)CCN1c1ccccc1` (stereo not shown) [Example 1.070] was 64 nM; that for `Cc1ccc(N2CCN(c3c(C#N)ccc(COC(=O)NC(=N)N)c3F)CC2)cc1C` [Example 1.086] was 149 nM.
The value for `N#Cc1ccc(N2CCN(c3c(C#N)ccc(COC(=O)NC(=N)N)c3F)CC2)c(F)c1` [Example 1.045] was 29 nM; that for `N#Cc1ccc(COC(=O)NC(=N)N)c(F)c1N1CCC(c2cccc(Cl)c2)CC1` [Example 1.076] was 56 nM.
Turning to `N#Cc1ccc(COC(=O)NC(=N)N)c(F)c1N1CCN(c2nccs2)CC1` [Example 1.036], the IC50 was 27 nM.
For the compound `CN1CCN(C2CCN(c3c(C#N)ccc(COC(=O)NC(=N)N)c3F)CC2)C(=O)C1` [Example 1.062], the IC50 was determined as 696 nM.
The same measure for `N#Cc1ccc(COC(=O)NC(=N)N)c(F)c1N1CCC(c2ccccc2)CC1` [Example 1.029]: 71 nM; for `COc1cnc(C2CCN(c3c(C#N)ccc(COC(=O)NC(=N)N)c3F)CC2)nc1` [Example 1.032]: 110 nM; for `COc1cccc(N2CCN(c3c(C#N)ccc(COC(=O)NC(=N)N)c3F)CC2)c1` [Example 1.021]: 21 nM.
The same measure for `N#Cc1ccc(COC(=O)NC(=N)N)c(F)c1N1CC(c2ccccn2)C1` [Example 1.087]: 470 nM.
The value for `Cc1cnc(C2=CCN(c3c(C#N)ccc(COC(=O)NC(=N)N)c3F)CC2)nc1` [Example 1.075] was 85 nM.
As for `COC(=O)N1CCC(C2CCN(c3c(C#N)ccc(COC(=O)NC(=N)N)c3F)CC2)CC1` [Example 1.027], the IC50 came to 4 nM.
The value for `N#Cc1ccc(COC(=O)NC(=N)N)c(F)c1N1CCC(C2CCOCC2)CC1` [Example 1.054] was 20 nM; that for `COc1cccc(C2=CCN(c3c(C#N)ccc(COC(=O)NC(=N)N)c3F)CC2)c1` [Example 1.061] was 30 nM.

As a reminder, the IC50 is the concentration that inhibits the measured activity by half.
